From PubChem BioAssay AID246 (DTP/NCI, 2004) come the findings set out here.

The subject of the test is BDF1 mice, P1081 chloroleukemia ip, survival T/C. Put plainly: NCI In Vivo Anticancer Drug Screen. Data for tumor model P1081 Chloroleukemia (intraperitoneal) in B6D2F1 (BDF1) mice. The conditions noted are these: endpoint: mean survival time, higher = longer survival. On the procedure:
The antitumor activity of compounds was measured in mice bearing transplantable tumors. Survival or tumor size were measured and the results are expressed as the measurement made in the treated group (T) divided by the measurement made in the vehicle treated control group (C). The tumor model used in this assay is P1081 Chloroleukemia (intraperitoneal) in B6D2F1 (BDF1) mice

Where [1] appears, read: dose: 0.5 mg/kg/injection, schedule: Q01DX Z (ip), vehicle: saline.
Where [2] appears, read: dose: 1.0 mg/kg/injection, schedule: Q01DX Z (ip), vehicle: saline.
Where [3] appears, read: dose: 2.5 mg/kg/injection, schedule: Q01DX010 (ip), vehicle: saline.
[4] abbreviates: dose: 5.0 mg/kg/injection, schedule: Q01DX010 (ip), vehicle: saline.
Setting [5] is: dose: 50.0 mg/kg/injection, schedule: Q01DX Z (ip), vehicle: carboxymethylcellulose (CMC).

Molecules are shown by their SMILES. Several values for one entry are separate records, joined by “and”; a condition that tells them apart may be missing. Equal entries are not always repeated. Inconclusive results and toxic doses are left out.

Turning to `C1CN1c1nc(N2CC2)nc(N2CC2)n1`, the T/C (dose: 0.03 mg/kg/injection, schedule: Q01DX Z (ip), vehicle: saline) is 92 % of control; the T/C (dose: 0.06 mg/kg/injection, schedule: Q01DX Z (ip), vehicle: saline) was 107 % of control; the T/C (dose: 0.13 mg/kg/injection, schedule: Q01DX010 (ip), vehicle: saline) was 95 % of control and 100 % of control; the T/C (dose: 0.25 mg/kg/injection, schedule: Q01DX010 (ip), vehicle: saline) is 94 % of control; the T/C (dose: 0.25 mg/kg/injection, schedule: Q01DX Z (ip), vehicle: saline) was 122 % of control and 102 % of control; the T/C (dose: 0.5 mg/kg/injection, schedule: Q01DX010 (ip), vehicle: saline) was 109 % of control. Besides, the T/C is, setting by setting: under setting [1], 121 % of control and 90 % of control; (dose: 1.0 mg/kg/injection, schedule: Q01DX010 (ip), vehicle: saline) 88 % of control; under setting [2], 102 % of control; (dose: 24.0 micrograms/kg/injection, schedule: Q01DX Z (ip), vehicle: saline) 89 % of control; (dose: 48.0 micrograms/kg/injection, schedule: Q01DX Z (ip), vehicle: saline) 96 % of control; (dose: 95.0 micrograms/kg/injection, schedule: Q01DX Z (ip), vehicle: saline) 98 % of control. Moreover, the T/C (dose: 190.0 micrograms/kg/injection, schedule: Q01DX Z (ip), vehicle: saline) is 89 % of control.
Take `Oc1cc(CN(CCCl)CCCl)c(O)cc1CN(CCCl)CCCl`: the T/C by setting is: (dose: 0.06 mg/kg/injection, schedule: Q01DX Z (sc), vehicle: steriod suspending solution) 101 % of control; (dose: 0.12 mg/kg/injection, schedule: Q01DX Z (sc), vehicle: steriod suspending solution) 109 % of control; (dose: 0.24 mg/kg/injection, schedule: Q01DX Z (sc), vehicle: steriod suspending solution) 114 % of control; (dose: 0.49 mg/kg/injection, schedule: Q01DX Z (sc), vehicle: steriod suspending solution) 172 % of control; (dose: 0.63 mg/kg/injection, schedule: Q01DX010 (ip), vehicle: saline) 110 % of control and 100 % of control; (dose: 0.99 mg/kg/injection, schedule: Q01DX Z (sc), vehicle: steriod suspending solution) 175 % of control. For the same molecule, the T/C (dose: 1.25 mg/kg/injection, schedule: Q01DX010 (ip), vehicle: saline) is 120 % of control and 104 % of control; the T/C under setting [3] is 122 % of control; the T/C (dose: 3.75 mg/kg/injection, schedule: Q01DX Z (sc), vehicle: steriod suspending solution) was 104 % of control; the T/C under setting [4] was 115 % of control and 118 % of control; the T/C (dose: 7.5 mg/kg/injection, schedule: Q01DX Z (sc), vehicle: steriod suspending solution) was 110 % of control and 101 % of control.
Regarding `CCCCCCCCCCCCNCCCCCCCCCCCC`, the T/C (dose: 0.24 mg/kg/injection, schedule: Q01DX Z (ip), vehicle: saline) is 91 % of control; the T/C (dose: 0.48 mg/kg/injection, schedule: Q01DX Z (ip), vehicle: carboxymethylcellulose (CMC)) is 112 % of control; the T/C (dose: 0.48 mg/kg/injection, schedule: Q01DX Z (ip), vehicle: saline) was 90 % of control; the T/C (dose: 1.9 mg/kg/injection, schedule: Q01DX Z (ip), vehicle: carboxymethylcellulose (CMC)) is 101 % of control; the T/C (dose: 1.9 mg/kg/injection, schedule: Q01DX Z (ip), vehicle: saline) is 94 % of control; the T/C (dose: 3.8 mg/kg/injection, schedule: Q01DX Z (ip), vehicle: carboxymethylcellulose (CMC)) is 103 % of control.
Regarding `CC[n+]1c(-c2ccccc2)c2cc(N)ccc2c2ccc(N)cc21`, the T/C by setting is: under setting [3], 165 % of control and 222 % of control; under setting [4], 190 % of control and 333 % of control; (dose: 20.0 mg/kg/injection, schedule: Q01DX010 (ip), vehicle: saline) 100 % of control.
In the case of `Nc1c(Br)cc2c(c1Br)Cc1cc([N+](=O)[O-])ccc1-2`, the T/C is, setting by setting: (dose: 15.6 mg/kg/injection, schedule: Q01DX010 (ip), vehicle: saline) 100 % of control; (dose: 31.3 mg/kg/injection, schedule: Q01DX010 (ip), vehicle: saline) 105 % of control; (dose: 62.5 mg/kg/injection, schedule: Q01DX010 (ip), vehicle: saline) 110 % of control and 100 % of control; (dose: 125.0 mg/kg/injection, schedule: Q01DX010 (ip), vehicle: saline) 100 % of control; (dose: 250.0 mg/kg/injection, schedule: Q01DX010 (ip), vehicle: saline) 100 % of control; (dose: 500.0 mg/kg/injection, schedule: Q01DX010 (ip), vehicle: saline) 95 % of control.
Consider `C[C@H]1C(=O)O[C@@H]2CCN3CC=C(COC(=O)[C@](C)(O)[C@@]1(C)O)[C@H]23`, for which the T/C is, setting by setting: (dose: 3.13 mg/kg/injection, schedule: Q01DX010 (ip), vehicle: saline) 115 % of control and 95 % of control; (dose: 6.25 mg/kg/injection, schedule: Q01DX010 (ip), vehicle: saline) 100 % of control; (dose: 7.5 mg/kg/injection, schedule: Q01DX Z (ip), vehicle: carboxymethylcellulose (CMC)) 106 % of control; (dose: 12.5 mg/kg/injection, schedule: Q01DX010 (ip), vehicle: saline) 95 % of control; (dose: 15.0 mg/kg/injection, schedule: Q01DX Z (ip), vehicle: carboxymethylcellulose (CMC)) 99 % of control; (dose: 25.0 mg/kg/injection, schedule: Q01DX010 (ip), vehicle: saline) 120 % of control and 95 % of control. The T/C runs as follows: (dose: 30.0 mg/kg/injection, schedule: Q01DX Z (ip), vehicle: carboxymethylcellulose (CMC)) 101 % of control; (dose: 60.0 mg/kg/injection, schedule: Q01DX Z (ip), vehicle: carboxymethylcellulose (CMC)) 106 % of control; (dose: 120.0 mg/kg/injection, schedule: Q01DX Z (ip), vehicle: carboxymethylcellulose (CMC)) 153 % of control; (dose: 240.0 mg/kg/injection, schedule: Q01DX Z (ip), vehicle: carboxymethylcellulose (CMC)) 103 % of control.
As to `C[C@]12CC[C@H](OC3OC(CO)C(O)C(O)C3O)C[C@H]1CC[C@@H]1[C@@H]2CC[C@]2(C)[C@@H](C3=CCOC3=O)CC[C@]12O` (some centres undefined), the T/C is 94 % of control under setting [1]; 96 % of control under setting [2]; 101 % of control (dose: 31.0 micrograms/kg/injection, schedule: Q01DX Z (ip), vehicle: saline); 98 % of control (dose: 63.0 micrograms/kg/injection, schedule: Q01DX Z (ip), vehicle: saline); 104 % of control (dose: 125.0 micrograms/kg/injection, schedule: Q01DX Z (ip), vehicle: saline); 104 % of control (dose: 250.0 micrograms/kg/injection, schedule: Q01DX Z (ip), vehicle: saline). Further, the T/C (dose: 500.0 micrograms/kg/injection, schedule: Q01DX Z (ip), vehicle: saline) was 110 % of control.
Turning to `Cn1cnc([N+](=O)[O-])c1Sc1ncnc2nc[nH]c12`, the T/C runs as follows: (dose: 25.0 mg/kg/injection, schedule: Q01DX Z (ip), vehicle: carboxymethylcellulose (CMC)) 165 % of control; under setting [5], 150 % of control; (dose: 100.0 mg/kg/injection, schedule: Q01DX Z (ip), vehicle: carboxymethylcellulose (CMC)) 104 % of control.
Consider `COc1cc2c(cc1I)-c1c(cc(OC)c(OC)c1OC)CC[C@@H]2NC(C)=O`, for which the T/C is, setting by setting: (dose: 45.0 mg/kg/injection, schedule: Q01DX010 (ip), vehicle: saline) 120 % of control; (dose: 67.0 mg/kg/injection, schedule: Q01DX010 (ip), vehicle: saline) 115 % of control; (dose: 100.0 mg/kg/injection, schedule: Q01DX010 (ip), vehicle: saline) 115 % of control; (dose: 150.0 mg/kg/injection, schedule: Q01DX010 (ip), vehicle: saline) 111 % of control and 115 % of control; (dose: 225.0 mg/kg/injection, schedule: Q01DX010 (ip), vehicle: saline) 100 % of control.
As for `N#CCSc1ncnc2nc[nH]c12`, the T/C is 119 % of control (dose: 6.25 mg/kg/injection, schedule: Q01DX Z (ip), vehicle: carboxymethylcellulose (CMC)); 110 % of control (dose: 15.0 mg/kg/injection, schedule: Q01DX010 (ip), vehicle: saline); 105 % of control and 95 % of control (dose: 30.0 mg/kg/injection, schedule: Q01DX010 (ip), vehicle: saline); 101 % of control under setting [5]; 110 % of control (dose: 60.0 mg/kg/injection, schedule: Q01DX010 (ip), vehicle: saline).
